Data as given in patent US8993527B2, “Methods, compositions, and formulations for preventing or reducing adverse effects in a patient” (Pericor Therapeutics, Inc., priority 2005, dated 2015).
Counter-ions that a name gives are not always drawn.

What was measured:
[1] = target: T1, NBTI-specific adenosine transport site (UniProt O54698); experiment: [3H]-NBTI binding assay; conditions: read-out: ED50 (50% displacement of bound [3H]-NBTI); 0.5 mg neuronal membrane protein, 0.5 nM [3H]-NBTI, 30 minutes
T1 sequence (O54698 1-457): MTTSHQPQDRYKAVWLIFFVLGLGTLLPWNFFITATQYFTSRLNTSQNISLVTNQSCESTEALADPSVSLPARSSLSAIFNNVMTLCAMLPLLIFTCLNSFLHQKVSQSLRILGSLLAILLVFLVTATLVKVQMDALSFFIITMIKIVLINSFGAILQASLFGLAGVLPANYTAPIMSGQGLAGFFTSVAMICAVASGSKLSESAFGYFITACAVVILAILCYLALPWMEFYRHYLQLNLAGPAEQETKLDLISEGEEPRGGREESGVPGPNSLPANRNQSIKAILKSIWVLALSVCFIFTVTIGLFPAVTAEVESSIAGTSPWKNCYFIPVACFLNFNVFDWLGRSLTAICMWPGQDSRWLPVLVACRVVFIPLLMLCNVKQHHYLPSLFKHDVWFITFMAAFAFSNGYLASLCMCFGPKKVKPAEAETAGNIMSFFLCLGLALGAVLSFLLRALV
Procedure: Increasing concentrations of the test compounds were incubated for 30 minutes with 0.5 mg neuronal membrane protein together with 0.5 nM [^3 H]-NBTI in a Tris buffer (pH 7.4) at room temperature. The assays were quenched and membranes collected by rapid filtration. Filters were then solubilized and radioactivity determined by scintillation counting.

[2] = test system: coronary endothelial cells; experiment: Inhibition of adenosine utilization in cell culture; format: cell-based; conditions: 1 μM [3H] adenosine, 15 minutes; for inhibition at 5 µM / inhibition at 50 µM: Endothelial cell
Procedure: In this assay, endothelial cells were incubated with 5 μM or 50 μM of the test compound together with 1 μM [^3H] adenosine for 15 minutes. Inhibition of adenosine utilization was determined by measuring the concentration of extracellular adenosine by scintillation counting following separation by thin layer chromatography (TLC).

[3] = test system: platelet aggregation in human whole blood; experiment: Inhibition of platelet aggregation in human whole blood; format: cell-based; conditions: 10 minutes at 37° C., 10 µM adenosine added, ADP (6-25 μM)
Procedure: Whole blood was drawn from healthy donors and collected in 0.1 vol. of sodium citrate to prevent coagulation. Platelet aggregation was measured by the impedance technique using a Whole Blood Aggregometer. The test compounds were incubated in whole blood for 10 minutes at 37° C. and 10 µM adenosine was added 5 minutes before eliciting aggregation. Aggregation was induced by addition of ADP (6-25 μM) at the minimum concentration inducing full aggregation in untreated controls.

[4] = test system: longitudinal muscle from the guinea pig ileum; experiment: Inhibition of stimulated contraction in isolated ileum; conditions: electrically stimulated guinea pig ileum muscle
Description: These are detailed in Table II.

Compound	EC50 [1] [µM]	inhibition at 5 µM ([2]; 5 μM) [%]	inhibition at 50 µM ([2]; 50 μM) [%]	also measured
CC(NC(=O)c1ncn(C2OC(CO)C(O)C2O)c1N)c1ccc([N+](=O)[O-])cc1 [49 (1-453), (R)-5-Amino-1-β-D-ribofuranosylimidazole 4-N-[1-4-nitrophenyl)ethyl]carboxamide]	7	30 ± 4	33 ± 8	–
Nc1c(C(=O)NCc2ccc([N+](=O)[O-])cc2)ncn1C1OC(CO)C(O)C1O [Compound No. 23 (1-343), 5-Amino-1-β-D-ribofuranosyl-imidazole-4-N-[(4-nitrophenyl)methyl]carboxamide]	3	27 ± 4	63 ± 2	IC50 ([3]; Homo sapiens, Platelet, 10 min): 38 µM; IC50 ([4]; Cavia porcellus): 3 µM
CN(C)c1ccc(CNC(=O)c2ncn([C@@H]3O[C@H](CO)[C@@H](O)[C@H]3O)c2N)cc1 [41 (1-396), 5-Amino-1-β-D-ribofuranosylimidazole-4-N(4-dimethylaminobenzyl)-carboxamide hydrochloride]	–	–	–	IC50 [4]: 100 µM
Nc1c(C(=O)NCc2ccc([N+](=O)[O-])cc2)ncn1C1OC(CI)C(O)C1O [46 (1-445), 5-Amino-1-(5-iodo-5-deoxy-β-D-ribofuranosyl)imidazole-4-N-[(4-nitrophenyl)methyl]carboxamide]	8	19 ± 4	30 ± 9	–
CC(NC(=O)c1ncn(C2OC(CO)C(O)C2O)c1N)c1ccc([N+](=O)[O-])cc1 [50 (1-459), (S)-5-Amino-1-β-D-ribofuranosylimidazole-4-N-[(4-nitrophenyl)ethyl]carboxamide]	28	–	–	–
Nc1c(C(=O)NCc2cccc(Cl)c2)ncn1C1OC(CO)C(O)C1O [Compound No. 35 (1-355), 5-amino-1-β-D-ribofuranosyl-imidazole-4-N[(3-chlorophenyl)methyl]carboxamide]	–	–	–	IC50 ([4]; Cavia porcellus): 60 µM
[N-]=[N+]=NCC1OC(n2cnc(C(=O)NCc3ccc(Cl)cc3)c2N)C(O)C1O (stereo not shown) [Compound No. 52 (1-467)]	–	–	–	IC50 ([3]; Homo sapiens, Platelet, 10 min): 480 µM
Nc1c(C(=O)NCc2ccc(S(N)(=O)=O)cc2)ncn1[C@@H]1O[C@H](CO)[C@@H](O)[C@H]1O [Compound No. 75 (1-577), 5-Amino-1-β-D-ribofuranosylimidazole-4-N-[(4-sulfamoylphenyl)methyl]carboxamide]	–	–	–	Inhibition of Adenosine Utilization (%) ([2]; 5 μM): 8 ± 0%; Inhibition of Adenosine Utilization (%) ([2]; 50 μM): 30 ± 3%
Nc1c(C(=O)NC[C@H](O)c2ccc(O)c(O)c2)ncn1[C@@H]1O[C@H](CO)[C@@H](O)[C@H]1O [42 (1-431), (R)-5-Amino-1-β-D-ribofuranosylimidazole-4-N-[2-hydroxy-2-(3,4-dihydroxyphenyl)ethyl]carboxamide]	–	–	–	IC50 [4]: 6 µM
Nc1c(C(=O)NCc2cccc(Cl)c2)ncn1[C@H]1O[C@H](CO)[C@@H](O)[C@H]1O [Compound No. 24 (1-354), 5-Amino-1-α-D-ribofuranosylimidazole-4-N-[(3-chlorophenyl)methyl]carboxamide]	–	–	–	IC50 [4]: 400 µM
Nc1c(C(=O)NCc2ccc(Cl)cc2Cl)ncn1C1OC(CO)C(O)C1O [Compound No. 25 (1-360), 5-amino-1-β-D-ribofuranosylimidazole-4-N-[(2,4-dichlorophenyl)methyl]carboxamide]	72	21 ± 1	56 ± 2	IC50 ([4]; Cavia porcellus): 20 µM
Nc1c(C(=O)NCCCc2ccc([N+](=O)[O-])cc2)ncn1[C@@H]1O[C@H](CO)[C@@H](O)[C@H]1O [Compound No. 73 (1-566)]	–	–	–	Inhibition of Adenosine Utilization (%) ([2]; 5 μM): 16 ± 0%; Inhibition of Adenosine Utilization (%) ([2]; 50 μM): 33 ± 9%
[N-]=[N+]=NC[C@H]1O[C@@H](n2cnc(C(=O)NCc3ccc([N+](=O)[O-])cc3)c2N)[C@H](O)[C@@H]1O [Compound No. 71 (1-562)]	–	–	–	IC50 [3]: 40 µM; Inhibition of Adenosine Utilization (%) ([2]; 5 μM): 10 ± 3%; Inhibition of Adenosine Utilization (%) ([2]; 50 μM): 31 ± 11%
Nc1c(C(=O)NCc2cccc(I)c2)ncn1C1OC(CO)C(O)C1O [Compound No. 44 (1-434), 5-Amino 1-β-D-ribofuranosyl-imidazole-4-N-[(3-iodophenyl)methyl]carboxamide]	–	–	–	IC50 ([4]; Cavia porcellus): 20 µM
NC(=O)c1ncn([C@@H]2O[C@H](CCl)[C@@H](O)[C@H]2O)c1N [Compound No. 26 (1-332), 5-amino-1-(5-chloro-5-deoxy-β-D-ribofuranosyl)imidazole-4-carboxamide]	–	–	–	IC50 ([4]; Cavia porcellus): 200 µM
NC[C@H]1O[C@@H](n2cnc(C(=O)NCc3ccc([N+](=O)[O-])cc3)c2N)[C@H](O)[C@@H]1O [Compound No. 72 (1-563)]	–	–	–	IC50 [3]: 300 µM
C[C@H]1O[C@@H](n2cnc(C(=O)NCc3ccc(Cl)cc3)c2N)[C@H](O)[C@@H]1O [Compound No. 61 (1-509), 5-Amino-1-(5-deoxy-β-D-ribofuranosyl)imidazole-4N-[(4-chlorophenyl)methyl]carboxamide]	32	–	–	IC50 [3]: 171 µM; Inhibition of Adenosine Utilization (%) ([2]; 5 μM): 37 ± 28%; Inhibition of Adenosine Utilization (%) ([2]; 50 μM): 72 ± 5%
5-Amino-4-[1-[4-(4-nitrophenyl)]piperazinocarbamoyl]-1-1-β-D-ribofurano sylimidazole [Compound No. 60 (1-508)]	17	–	–	–

Continued, in another order:

EC50 [1] [µM]	Compound	inhibition at 5 µM ([2]; 5 μM) [%]	inhibition at 50 µM ([2]; 50 μM) [%]	also measured
225	Cc1ccc(CNC(=O)c2ncn(C3OC(CO)C(O)C3O)c2N)cc1 [Compound No. 30 (1-388), 5-amino-1-β-D-ribofuranosylimidazole-4-N-[(4-methylphenyl)methyl]carboxamide]	21 ± 1	49 ± 4	IC50 ([4]; Cavia porcellus): 20 µM
80	Nc1c(C(=O)Nc2ccc([N+](=O)[O-])cc2)ncn1C1OC(CO)C(O)C1O [Compound No. 58 (1-489), 5-Amino-1-β-D-ribofuranosylimidazole-4-N-(4-nitrophenyl)carboxamide]	–	–	–
32	Nc1c(C(=O)NCc2ccc(Br)cc2)ncn1C1OC(CO)C(O)C1O [Compound No. 56 (1-487), 5-Amino 1-β-D-ribofuranosyl-imidazole-4-N-[(4-bromophenyl)methyl]carboxamide]	55 ± 7	65 ± 9	IC50 ([3]; Homo sapiens, Platelet, 10 min): 75 µM
28	CSC[C@H]1O[C@@H](n2cnc(C(N)=O)c2N)[C@H](O)[C@@H]1O [Compound No. 54 (1-483), 5-Amino-1-(5-deoxy-5-methylthio-β-D-ribofuranosyl)imidazole-4-carboxamide]	–	–	–
15	Nc1c(C(=O)NCc2cccc([N+](=O)[O-])c2)ncn1C1OC(CO)C(O)C1O [Compound No. 28 (1-348), 5-amino-1-β-D-ribofuranosylimidazole-4-N-[(3-nitrophenyl)methyl]carboxamide]	17 ± 3	47 ± 2	IC50 ([3]; Homo sapiens, Platelet, 10 min): 180 µM
22	Nc1c(C(=O)N2CCc3ccccc32)ncn1C1OC(CO)C(O)C1O [Compound No. 48 (1-452), 5-Amino-1-β-D-ribofuranosyl-imidazole-4-N-indolinylcarboxamide]	23 ± 3	25 ± 2	–
600	COc1ccc(CNC(=O)c2ncn(C3OC(CO)C(O)C3O)c2N)cc1 [Compound No. 39 (1-390), 5-Amino-1-β-D-ribofuranosyl-imidazole-4-N-[p-methoxybenzyl]carboxamide]	7 ± 4	29 ± 1	IC50 ([4]; Cavia porcellus): 500 µM
90	Nc1c(C(=O)NC2CC3CCC2C3)ncn1C1OC(CO)C(O)C1O [Compound No. 45 (1-438), 5-Amino-1-β-D-ribofuranosylimidazole-4-N-(2-endo-norbornyl)carboxamide]	–	–	IC50 ([4]; Cavia porcellus): 100 µM
71	NC(=O)c1nc(Sc2ccccc2)n([C@@H]2O[C@H](CO)[C@@H](O)[C@H]2O)c1N [Compound No. 43 (1-432), 5-Amino-2-thiophenyl-1-β-D-ribofuranosylimidazole-4-carboxamide]	–	–	IC50 [3]: 620 µM; IC50 [4]: 200 µM
2	Nc1c(C(=O)NCCc2ccc([N+](=O)[O-])cc2)ncn1C1OC(CO)C(O)C1O [Compound No. 59 (1-506), 5-Amino-1-β-D-ribofuranosyl-imidazole-4-N→2-(4-nitrophenyl)ethyl carboxamide]	–	–	IC50 ([3]; Homo sapiens, Platelet, 10 min): 70 µM
